Assay results: the NIST ThermoML archive (doi:10.1016/j.jct.2011.06.020)

Assay: refractive index (Na D-line) (dimensionless); xn = mol fraction of the nth substance listed
Conditions: 101 kPa, Liquid, Standard Abbe refractometry

CN1CCNCC1 [N-methylpiperazine] + O
refractive index
Conditions | 293.15 K | 298.15 K | 303.15 K | 308.15 K | 313.15 K | 323.15 K | 328.15 K | 333.15 K
x1 = 0.0521 | 1.374 | 1.373 | 1.373 | 1.372 | 1.371 | 1.369 | 1.368 | 1.366
x1 = 0.0725 | 1.389 | 1.388 | 1.387 | 1.386 | 1.384 | 1.382 | 1.381 | 1.379
x1 = 0.1039 | 1.406 | 1.405 | 1.403 | 1.402 | 1.401 | 1.397 | 1.396 | 1.396
x1 = 0.2091 | 1.44 | 1.438 | 1.436 | 1.434 | 1.432 | 1.428 | 1.427 | 1.425
x1 = 0.3101 | 1.453 | 1.451 | 1.449 | 1.447 | 1.445 | 1.441 | 1.439 | 1.437
x1 = 0.4096 | 1.459 | 1.457 | 1.455 | 1.453 | 1.451 | 1.446 | 1.444 | 1.442
x1 = 0.5109 | 1.462 | 1.46 | 1.458 | 1.456 | 1.454 | 1.449 | 1.447 | 1.445
x1 = 0.608 | 1.464 | 1.462 | 1.46 | 1.457 | 1.455 | 1.451 | 1.448 | 1.446
x1 = 0.7065 | 1.465 | 1.463 | 1.461 | 1.458 | 1.456 | 1.451 | 1.449 | 1.447
x1 = 0.8069 | 1.466 | 1.463 | 1.461 | 1.459 | 1.456 | 1.452 | 1.449 | 1.447
x1 = 0.8819 | 1.466 | 1.464 | 1.461 | 1.459 | 1.457 | 1.452 | 1.449 | 1.447
x1 = 1 | 1.466 | 1.464 | 1.461 | 1.459 | 1.457 | 1.452 | 1.449 | 1.447
